The structures appear in SMILES notation.

34 compounds from patent US8557796B2, “Substituted 1-oxa-2,8-diaza-spiro [4,5] dec-2-ene derivatives and related treatment methods” (Gruenenthal GmbH, priority 2001, dated 2013) can be followed below.

T1 sequence (Q9WTR4 1-597): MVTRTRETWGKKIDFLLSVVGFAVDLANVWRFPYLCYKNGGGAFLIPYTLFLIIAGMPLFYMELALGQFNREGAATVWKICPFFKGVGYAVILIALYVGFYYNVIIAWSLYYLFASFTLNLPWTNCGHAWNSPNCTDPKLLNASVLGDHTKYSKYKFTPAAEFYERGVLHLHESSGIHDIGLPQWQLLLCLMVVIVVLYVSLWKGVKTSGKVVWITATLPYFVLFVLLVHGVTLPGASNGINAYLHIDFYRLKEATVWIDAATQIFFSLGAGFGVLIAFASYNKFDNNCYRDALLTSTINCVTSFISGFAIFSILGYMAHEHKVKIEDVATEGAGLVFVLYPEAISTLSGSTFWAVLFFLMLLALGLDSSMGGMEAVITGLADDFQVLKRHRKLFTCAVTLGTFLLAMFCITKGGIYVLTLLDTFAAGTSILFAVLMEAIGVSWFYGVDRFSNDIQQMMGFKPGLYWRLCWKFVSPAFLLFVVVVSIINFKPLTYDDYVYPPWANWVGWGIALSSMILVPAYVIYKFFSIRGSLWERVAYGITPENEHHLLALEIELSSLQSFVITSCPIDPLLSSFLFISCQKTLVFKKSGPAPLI

One test concerns the target T1, NA transporter (Rattus norvegicus, UniProt Q9WTR4).
T1 construct: synaptosomes from rat brain regions were freshly isolated; from tissue; host or cells: P2 synaptosome fraction from hypothalamus of male rat brain
As to the kind of experiment: Noradrenalin uptake inhibition (NA-uptake) in synaptosomes. Type of test: biochemical. Conditions: rat hypothalamus synaptosomes. An excerpt:
Tests on Noradrenalin Uptake Inhibition (NA-Uptake Inhibition)
In order to be able to carry out these in vitro studies, synaptosomes from rat brain regions were freshly isolated.
In turn, `O=C(NCc1ccc2c(c1)OCO2)C1=NOC2(CCN(S(=O)(=O)c3ccc(Cl)s3)CC2)C1` [Example 30, 8-(5-chloro-thiophene-2-sulphonyl)-1-oxa-2,8-diaza-spiro[4,5]dec-2-ene-3-carboxylic acid (benzo[1,3]dioxol-5-ylmethyl)-amide] returned an inhibition at 10 µM of 48%.
As for `CC(NC(=O)C1=NOC2(CCN(S(=O)(=O)c3cccs3)CC2)C1)c1ccccc1` (stereo not shown) [Example 8, 8-(thiophene-2-sulphonyl)-1-oxa-2,8-diaza-spiro[4,5]dec-2-ene-3-carboxylic acid (1-phenyl-ethyl)-amide], the inhibition at 10 µM came to 48%.
Regarding `O=C(NCc1ccncc1)C1=NOC2(CCN(C(=O)c3ccc(OC(F)(F)F)cc3)CC2)C1` [Example 187, 8-(4-trifluoromethoxy-benzoyl)-1-oxa-2,8-diaza-spiro[4,5]dec-2-ene-3-carboxylic acid (pyridin-4-ylmethyl)-amide], the inhibition at 10 µM stood at 44%.
`O=C(NC1CCCC1OCc1ccccc1)C1=NOC2(CCN(S(=O)(=O)Cc3ccccc3)CC2)C1` (stereo not shown) [Example 20, 8-phenylmethanesulphonyl-1-oxa-2,8-diaza-spiro[4,5]dec-2-ene-3-carboxylic acid (2-benzyloxy-cyclopentyl)-amide] came in with an inhibition at 10 µM of 70%.
Take `CCSCCNC(=O)C1=NOC2(CCN(C(=O)c3cc(C(C)(C)C)nn3C)CC2)C1` [Example 185, 8-(5-tert-butyl-2-methyl-2H-pyrazole-3-carbonyl)-1-oxa-2,8-diaza-spiro[4,5]dec-2-ene-3-carboxylic acid (2-ethylsulphanyl-ethyl)-amide]: the inhibition at 10 µM was determined as 45%.
`CN(C)S(=O)(=O)N1CCC2(CC1)CC(C(=O)N1CCN(CCCc3ccccc3)CC1)=NO2` [Example 80, 3-[4-(3-phenyl-propyl)-piperazine-1-carbonyl]-1-oxa-2,8-diaza-spiro[4,5]dec-2-ene-8-sulphonic acid dimethylamide] gave an inhibition at 10 µM of 60%.
As for `O=C(NCc1cccs1)C1=NOC2(CCN(C(=O)CCCOc3ccccc3)CC2)C1` [Example 183], the “NA-uptake, 10 μM, % inhibition” value is recorded as 67%.
Regarding `O=C(NC1CCCC1OCc1ccccc1)C1=NOC2(CCN(S(=O)(=O)c3ccc(F)cc3)CC2)C1` (stereo not shown) [Example 199], the “NA-uptake, 10 μM, % inhibition” value turned out to be 78%.
For the compound `O=C(NCc1cccs1)C1=NOC2(CCN(C(=O)c3cccc(Cl)c3)CC2)C1` [Example 208], the “NA-uptake, 10 μM, % inhibition” value turned out to be 52%.
For the compound `CC(Cc1ccc(Cl)cc1)NC(=O)C1=NOC2(CCN(S(=O)(=O)c3ccc(Cl)s3)CC2)C1` (stereo not shown) [Example 168, 8-(5-chloro-thiophene-2-sulphonyl)-1-oxa-2,8-diaza-spiro[4,5]dec-2-ene-3-carboxylic acid [2-(4-chloro-phenyl)-1-methyl-ethyl]-amide], the inhibition at 10 µM is 79%.
As for `CN(CCCNC(=O)C1=NOC2(CCN(S(=O)(=O)c3ccc(Cl)s3)CC2)C1)c1ccccc1` [Example 89], the “NA-uptake, 10 μM, % inhibition” value was 68%.
In the case of `O=C(NCC1CC1)C1=NOC2(CCN(C(=O)c3ccc(SC(F)(F)F)cc3)CC2)C1` [Example 108, 8-(4-trifluoromethylsulphanyl-benzoyl)-1-oxa-2,8-diaza-spiro[4,5]dec-2-ene-3-carboxylic acid cyclopropylmethyl-amide], testing at 10 µM gave an inhibition of 42%.
On to `Cc1ccc(F)c(C(=O)N2CCC3(CC2)CC(C(=O)NCc2cccs2)=NO3)c1F` [Example 170, 8-(2,6-difluoro-3-methyl-benzoyl)-1-oxa-2,8-diaza-spiro[4,5]dec-2-ene-3-carboxylic acid (thiophen-2-ylmethyl)-amide], for which the inhibition at 10 µM turned out to be 43%.
In the case of `O=C(C1=NOC2(CCN(S(=O)(=O)c3ccc(OC(F)(F)F)cc3)CC2)C1)N1CCN(CCCc2ccccc2)CC1` [Example 176, [4-(3-phenyl-propyl)-piperazin-l-yl]-[8-(4-trifluoromethoxy-benzenesulphonyl)-1-oxa-2,8-diaza-spiro [4,5]dec-2-en-3-yl]-methanone], the “NA-uptake, 10 μM, % inhibition” value is given as 52%.
As for `Cc1cc(C(=O)N2CCC3(CC2)CC(C(=O)NCc2ccccc2)=NO3)c(C)o1` [Example 217, 8-(2,5-dimethyl-furan-3-carbonyl)-1-oxa-2,8-diaza-spiro[4,5]dec-2-ene-3-carboxylic acid benzylamide], 10 µM produced 40% inhibition.
As for `O=C(C1=NOC2(CCN(S(=O)(=O)c3ccc(F)cc3)CC2)C1)N1CCN(C2CCCCCC2)CC1` [Example 218], the “NA-uptake, 10 μM, % inhibition” value turned out to be 44%.

The target in the next test is T2, 5HT-uptake (Rattus norvegicus, UniProt P31652).
T2 construct: synaptosomes from rat brain regions were freshly isolated; from tissue; host or cells: P2 synaptosome fraction from rat brain regions
T2 sequence (P31652 whole entry): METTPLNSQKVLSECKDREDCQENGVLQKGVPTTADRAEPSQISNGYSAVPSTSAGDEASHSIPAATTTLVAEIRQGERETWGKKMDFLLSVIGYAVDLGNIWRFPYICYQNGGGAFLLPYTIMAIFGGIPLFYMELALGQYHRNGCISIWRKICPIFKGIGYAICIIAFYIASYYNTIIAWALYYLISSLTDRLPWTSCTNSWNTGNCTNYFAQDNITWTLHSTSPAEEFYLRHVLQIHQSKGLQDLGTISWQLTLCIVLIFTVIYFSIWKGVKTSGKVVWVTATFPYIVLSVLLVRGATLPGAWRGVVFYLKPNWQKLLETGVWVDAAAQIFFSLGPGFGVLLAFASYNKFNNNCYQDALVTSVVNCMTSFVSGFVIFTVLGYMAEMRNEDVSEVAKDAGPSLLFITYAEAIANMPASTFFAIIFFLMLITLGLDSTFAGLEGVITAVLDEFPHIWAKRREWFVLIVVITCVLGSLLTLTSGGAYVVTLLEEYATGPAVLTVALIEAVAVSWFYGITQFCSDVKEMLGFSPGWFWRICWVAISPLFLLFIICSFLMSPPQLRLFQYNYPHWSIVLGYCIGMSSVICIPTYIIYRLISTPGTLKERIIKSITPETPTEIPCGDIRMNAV
Kind of test: Serotonin uptake inhibition (5HT uptake) in synaptosomes. Type of test: biochemical. Conditions: rat brain synaptosomes.
Compound `O=C(Nc1ccc2ccccc2c1)C1=NOC2(CCN(S(=O)(=O)c3ccc(OC(F)(F)F)cc3)CC2)C1` [Example 54, 8-(4-trifluoromethoxy-benzenesulphonyl)-1-oxa-2,8-diaza-spiro[4,5]dec-2-ene-3-carboxylic acid naphthalen-2-ylamide] showed an inhibition at 10 µM of 43%.
`CCOC(=O)CCNC(=O)C1=NOC2(CCN(C(=O)c3cc(F)cc(F)c3)CC2)C1` [Example 81, 3-{[8-(3,5-difluoro-benzoyl)-1-oxa-2,8-diaza-spiro[4,5]dec-2-ene-3-carbonyl]-amino}-propionic acid ethyl ester] came in with an inhibition at 10 µM of 46%.
Compound `COc1ccc(S(=O)(=O)N2CCC3(CC2)CC(C(=O)NC(CC(C)C)C(=O)OC(C)(C)C)=NO3)cc1` (stereo not shown) [Example 147, 2-{[8-(4-methoxy-benzenesulphonyl)-1-oxa-2,8-diaza-spiro[4,5]dec-2-ene-3-carbonyl]-amino}-4-methyl-pentanoic acid tert-butyl ester] gave an inhibition at 10 µM of 67%.
Regarding `Cc1ccc(S(=O)(=O)N2CCC3(CC2)CC(C(=O)N2CCN(C(=O)Cc4ccccc4)CC2)=NO3)cc1` [Example 25, 2-phenyl-1-{4-[8-(toluene-4-sulphonyl)-1-oxa-2,8-diaza-spiro[4,5]dec-2-ene-3 carbonyl]-piperazin-1-yl)-ethanone], testing at 10 µM gave an inhibition of 51%.
Consider `COc1ccc(OC)c(CN(Cc2ccco2)C(=O)C2=NOC3(CCN(S(=O)(=O)c4ccc(F)cc4)CC3)C2)c1` [Example 160], for which the “5HT-uptake, 10 μM, % inhibition” value is 50%.
Compound `Cc1ccc(C(=O)N2CCC3(CC2)CC(C(=O)NCC2CC2)=NO3)c(F)c1F` [Example 159, 8-(2,3-difluoro-4-methyl-benzoyl)-1-oxa-2,8-diaza-spiro[4,5]dec-2-ene-3-carboxylic acid cyclopropylmethyl-amide] showed an inhibition at 10 µM of 40%.
Compound `CCOC(=O)CCNC(=O)C1=NOC2(CCN(S(=O)(=O)CC34CCC(CC3=O)C4(C)C)CC2)C1` (stereo not shown) [Example 66, 3-{[8-(7,7-dimethyl-2-oxo-bicyclo[2.2.1]hept-1-ylmethane-sulphonyl)-1-oxa-2,8-diaza-spiro[4,5]dec-2-ene-3-carbonyl]-amino]-propionic acid ethyl ester] displayed an inhibition at 10 µM of 40%.
For `CN(C)S(=O)(=O)N1CCC2(CC1)CC(C(=O)N1CCN(c3ncnc4sccc34)CC1)=NO2` [Example 70, 3-(4-thieno[2,3-d]pyrimidin-4-yl-piperazine-1-carbonyl)-1-oxa-2,8-diaza-spiro[4,5]dec-2-ene-8-sulphonic acid dimethylamide], the inhibition at 10 µM was determined as 54%.
For the compound `CCc1ccc(C(=O)N2CCC3(CC2)CC(C(=O)NCc2cccs2)=NO3)cc1` [Example 52, 8-(4-ethyl-benzoyl)-1-oxa-2,8-diaza-spiro[4,5]dec-2-ene-3-carboxylic acid (thiophen-2-ylmethyl)-amide], the inhibition at 10 µM was found to be 60%.
Consider `C=CCOC(=O)C(CC(=O)OC(C)(C)C)NC(=O)C1=NOC2(CCN(S(=O)(=O)c3cc(Cl)ccc3Cl)CC2)C1` (stereo not shown) [Example 53], for which the “5HT-uptake, 10 μM, % inhibition” value stood at 53%.
`CN1CCCC1CCNC(=O)C1=NOC2(CCN(S(=O)(=O)c3ccc(Cl)s3)CC2)C1` (stereo not shown) [Example 61, 8-(5-chloro-thiophene-2-sulphonyl)-1-oxa-2,8-diaza-spiro[4,5]dec-2-ene-3-carboxylic acid [2-(1-methyl-pyrrolidin-2-yl)-ethyl]-amide] displayed an inhibition at 10 µM of 72%.
`O=C(C1=NOC2(CCN(S(=O)(=O)c3ccc(Cl)s3)CC2)C1)N1CCN(c2ccc(F)cc2)CC1` [Example 91, [8-(5-chloro-thiophene-2-sulphonyl)-1-oxa-2,8-diaza-spiro[4,5]dec-2-en-3-yl]-[4-(4-fluorophenyl)-piperazin-1-yl]-methanone]: the inhibition at 10 µM worked out at 45%.
Consider `O=C(C1=NOC2(CCN(S(=O)(=O)Cc3ccccc3)CC2)C1)N1CCN(Cc2ccc3ccccc3c2)CC1` [Example 6, (4-naphthalen-2-ylmethyl-piperazin-l-yl)-(8-phenylmethane-sulphonyl-1-oxa-2,8 diaza-spiro[4,5]dec-2-en-3-yl)-methanone], for which the “5HT-uptake, 10 μM, % inhibition” value amounted to 54%.
Consider `CCCCCC(=O)N1CCC2(CC1)CC(C(=O)NCC1CC1)=NO2` [Example 158, 8-hexanoyl-1-oxa-2,8-diaza-spiro[4,5]dec-2-ene-3-carboxylic acid cyclopropylmethyl-amide], for which at 10 µM the inhibition was 42%.
Take `CCCC(=O)N1CCC2(CC1)CC(C(=O)NC1CCN(C(=O)OCC)CC1)=NO2` [Example 74, 4-[(8-butyryl-1-oxa-2,8-diaza-spiro[4,5]dec-2-ene-3-carbonyl)-amino]-piperidine-l-carboxylic acid ethyl ester]: the “5HT-uptake, 10 μM, % inhibition” value is given as 43%.
In turn, `Cc1cnc(C(=O)N2CCN(C(=O)C3=NOC4(CCN(S(=O)(=O)c5ccc(F)cc5)CC4)C3)CC2)cn1` [Example 76, [8-(4-fluoro-benzenesulphonyl)-1-oxa-2,8-diaza-spiro[4,5]dec-2-ene-3-yl]-[4-(5-methyl-pyrazine-2-carbonyl)-piperazin-1-yl]-methanone] returned an inhibition at 10 µM of 42%.
For `CCOC(=O)CCNC(=O)C1=NOC2(CCN(S(=O)(=O)c3cc([N+](=O)[O-])ccc3C)CC2)C1` [Example 95], the “5HT-uptake, 10 μM, % inhibition” value was 54%.
Still for that read-out and setting: with `CCSCCNC(=O)C1=NOC2(CCN(C(=O)c3ccc(Br)cc3)CC2)C1` [Example 154] the figure was 48%.
